Laboratory results: ChEMBL document CHEMBL1201862, “PubChem BioAssay data set” (2004)
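These data come from cells grown in 96-well plates and exposed to compound for 48 hours at five concentrations. At the GI50, growth is halved.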 The source made the active and inactive calls. Cut-off read from the data, not from the text of the source: active = GI50 up to about 1.1 µM and inactive = higher.

How the values were obtained:
Assay in all cases: inhibition of tumour cell growth, NCI panel, 48 h
[1] = tested on: NCI-H460
[2] = tested on: COLO 205
[3] = tested on: Malme-3M
[4] = tested on: CAKI-1
[5] = tested on: OVCAR-3
[6] = tested on: HOP-62
[7] = tested on: TK-10
[8] = tested on: SK-MEL-28
[9] = tested on: SF-539
[10] = tested on: KM12
[11] = tested on: EKVX
[12] = tested on: NCI-H23
[13] = tested on: UACC-62
[14] = tested on: OVCAR-4
[15] = tested on: SK-OV-3

Row | Compound | GI50 [1] | GI50 [2] | GI50 [3] | GI50 [4] | GI50 [5] | GI50 [6] | GI50 [7] | GI50 [8] | GI50 [9] | GI50 [10] | GI50 [11] | GI50 [12] | GI50 [13] | GI50 [14] | GI50 [15]
1 | O=C(Nc1nnc(S)[nH]1)C(=O)C1C(=O)Nc2ccccc2[S+]1[O-] (stereo not drawn) | > 100 µM (inactive) | > 100 µM (inactive) | > 100 µM (inactive) | > 100 µM (inactive) | > 100 µM (inactive) | > 100 µM (inactive) | > 100 µM (inactive) | > 100 µM (inactive) | > 100 µM (inactive) | > 100 µM (inactive) | > 100 µM (inactive) | > 100 µM (inactive) | > 100 µM (inactive) | > 100 µM (inactive) | > 100 µM (inactive)
2 | O=C1N=C2Sc3ccc4ccccc4c3N2C1=O | 25.1 µM (inactive) | 29.6 µM (inactive) | 19.1 µM (inactive) | 24.1 µM (inactive) | 18 µM (inactive) | 19.2 µM (inactive) | 34.4 µM (inactive) | 27 µM (inactive) | 18.8 µM (inactive) | 32.7 µM (inactive) | 16.1 µM (inactive) | 22.5 µM (inactive) | 40.5 µM (inactive) | 17 µM (inactive) | 15.5 µM (inactive)
3 | CC1(C)COC(C23C4C5C2C2C3C4C52I)=N1 (stereo not drawn) | > 100 µM (inactive) | > 100 µM (inactive) | > 100 µM (inactive) | 50.4 µM (inactive) | > 100 µM (inactive) | > 100 µM (inactive) | > 100 µM (inactive) | > 100 µM (inactive) | > 100 µM (inactive) |  | > 100 µM (inactive) | > 100 µM (inactive) | > 100 µM (inactive) | > 100 µM (inactive) | > 100 µM (inactive)
4 | CCOC(=O)C1C(=O)c2cccc(OC)c2C2COC(=O)N12 (stereo not drawn) | > 100 µM (inactive) | > 100 µM (inactive) | > 100 µM (inactive) |  | > 100 µM (inactive) | > 100 µM (inactive) | > 100 µM (inactive) | > 100 µM (inactive) | > 100 µM (inactive) | > 100 µM (inactive) | > 100 µM (inactive) | > 100 µM (inactive) | > 100 µM (inactive) | > 100 µM (inactive) | > 100 µM (inactive)
5 | c1ccc(SC(CCCCC(Sc2ccccc2)Sc2ccccc2)Sc2ccccc2)cc1 | > 100 µM (inactive) | > 100 µM (inactive) |  | > 100 µM (inactive) | > 100 µM (inactive) | > 100 µM (inactive) | > 100 µM (inactive) | > 100 µM (inactive) | > 100 µM (inactive) | > 100 µM (inactive) | > 100 µM (inactive) | > 100 µM (inactive) | > 100 µM (inactive) | > 100 µM (inactive) | > 100 µM (inactive)
6 | CCCCCCCCCCCCCC(=O)OCC1OC(OC)C(NC(=O)N(CCCl)N=O)C(O)C1O (stereo not drawn) | 4.93 µM (inactive) | 21.9 µM (inactive) | 27 µM (inactive) | > 100 µM (inactive) | 24.9 µM (inactive) | 17.2 µM (inactive) | 37.9 µM (inactive) | 25.3 µM (inactive) | 3.56 µM (inactive) | 24.4 µM (inactive) |  | 12.9 µM (inactive) | 1.97 µM (inactive) | 20.6 µM (inactive) | 
7 | Cc1ccc(NC(=O)C(=O)C(C(=O)/C=C/c2ccccc2)C2OC(=O)c3ccccc32)c(C)c1 (stereo not drawn) | > 100 µM (inactive) | > 100 µM (inactive) | > 100 µM (inactive) | > 100 µM (inactive) | > 100 µM (inactive) | > 100 µM (inactive) | > 100 µM (inactive) | > 100 µM (inactive) | > 100 µM (inactive) | > 100 µM (inactive) | > 100 µM (inactive) | > 100 µM (inactive) | > 100 µM (inactive) | > 100 µM (inactive) | > 100 µM (inactive)
8 | CC1/C=C/[C@@]2(C)CCC(C(C)(C)O)C2C(O)C[C@](C)(O)/C=C/C1 (stereo partly drawn) | > 100 µM (inactive) | > 100 µM (inactive) | > 100 µM (inactive) | > 100 µM (inactive) | > 100 µM (inactive) | > 100 µM (inactive) | > 100 µM (inactive) | > 100 µM (inactive) | > 100 µM (inactive) | > 100 µM (inactive) | > 100 µM (inactive) | > 100 µM (inactive) | > 100 µM (inactive) | > 100 µM (inactive) | > 100 µM (inactive)
9 | COc1cc2c(c(OC)c1OC)-c1ccc(SC)c(=O)cc1[C@@H](NCc1cccc([N+](=O)[O-])c1)CC2 | < 0.01 µM (active) | < 0.01 µM (active) | < 0.01 µM (active) | < 0.01 µM (active) | < 0.01 µM (active) |  | < 0.01 µM (active) |  | < 0.01 µM (active) | < 0.01 µM (active) | < 0.01 µM (active) | < 0.01 µM (active) | < 0.01 µM (active) | < 0.01 µM (active) | < 0.01 µM (active)
